The assay deals with NLRP3. In words: IL-1β secretion assay in PMA-differentiated, LPS/nigericin-stimulated THP-1 cells (384-well, ELISA read-out). The assay is classed as cell-based, human. Here is the method: Compounds as provided herein were tested in the following assay. Cell culture medium employed contained RPMI 1640 medium (89%), FBS (10%), Pen/Strep (1%), and 2-mercaptoethanol (0.05 mM). Freezing medium was made up of 90% FBS and 10% DMSO. THP-1 cells were removed from the liquid nitrogen and placed into a 37° C. water bath to thaw, until signs of ice dissipated. The cells were then added to 9 mL of warm cell culture medium and centrifuged for 5 minutes at 1000 rpm. The supernatant was discarded, and the cells were resuspended in new cell culture medium. THP-1 cells were then split and cultured in the cell culture medium, being passaged every 2-3 days with the cell density will be maintained between 5×10^5 and 1.5×10^6 viable cells/mL.
To freeze, cells were resuspended with fresh freezing medium, adjusting the cell density to 5×10^6 cells/mL. The cell suspension was partitioned into 1 mL aliquots per vial, and the vials were transferred to a −80° C. freezer. After one day at −80° C., the cell vials were transferred to liquid nitrogen freezer for storage.
PMA was dissolved in DMSO to make a stock solution at 5 mg/mL and stored in 10 μl aliquots at −20° C. for single use. PMA is added to normal growth medium. LPS was diluted with 1 mL of water solution to provide a 1 mg/mL stock solution and stored in 15 μl aliquots at −20° C. for single use. Nigericin is diluted in ice cold 100% ethanol to 5 mg/mL (6.7 mM) and stored in 75 μL aliquots at −20° C. for single use. Serum-free media contains RPMI 1640 medium (99%), Pen/Strep (1%), and 2-mercaptoethanol (0.05 mM). The two control conditions used to qualify and normalize test compound dose-response curves were as follows: High Control=25 ng/mL LPS, 5 μM Nigericin, 0.5% DMSO, Low Control=25 ng/mL, LPS, 0.5% DMSO.
THP-1 cells were diluted to provide a suspension at a concentration of 1.0×10^6 cells/mL with the total volume of suspension required to enable the desired number of assay plates. The growth media was supplemented with PMA (5 ng/mL final concentration) and the cells were incubated at 37° C. under a humidified atmosphere of 5% CO2 for 40 h.
All media was carefully aspirated from each culture flask. The cells were washed carefully with 1×DPBS. The cells were then briefly digested with trypsin LE for 5 minutes at 23° C., and immediately resuspended in cell growth media. After resuspension, the cells were centrifuged at 1000 rpm for 3 minutes and the supernatant was discarded. The cells were resuspended in DPBS and once again centrifuged at 1000 rpm for 5 minutes. The supernatant was discarded and the cell pellet was resuspended in serum-free media supplemented with LPS (25 ng/mL final concentration) to enable the distribution of 30K THP-1 cells within 45 μL of media into each well of 384-well PDL-coated plates. The 384-well plates were then incubated at 37° C. under a humidified atmosphere of 5% CO2 for 2 h. Following this period, test compounds were dispensed by Tecan across the desired concentration range with all wells normalized to a final 0.5% DMSO concentration. The plates were then incubated at 37° C. under a humidified atmosphere of 5% CO2 for 1 h. Following this period, 5 μL of the […] was added to each of the appropriate wells and plates were centrifuged at 1000 rpm for 30 seconds. The plates were the immediately reintroduced to the incubator at 37° C. under a humidified atmosphere of 5% CO2 for 2 h. After this time, 35 μL/well of supernatant was collected and transferred into v-bottom plate and centrifuged at 1000 rpm for 1 minute. These supernatant aliquots were analyzed using an IL-Iβ detection kit as described below. If needed, the test samples could be snap frozen and stored at −80° C. until analyzed.
To prepare each ELISA plate, capture antibody (mAb Mt175) was diluted with PBS to a final concentration of 2 μg/mL and then 20 μL of this solution was added to each well of the ELISA plate. Each plate was allowed to incubate overnight at 4° C.
Background: In an ELISA, binding on a coated surface is turned into a signal by an enzyme label.

The mark [1] stands for this setting: Homo sapiens, THP-1, IL-1β secretion, PMA-differentiated THP-1 cells, LPS then nigericin stimulation, ELISA read at 450 nm, read-out: Activity.
[2] abbreviates: Table 4, IL-1β secretion, LPS/nigericin-stimulated THP-1 cells, read-out: IC50.
Where [3] appears, read: IL-1β secretion, PMA-differentiated THP-1 cells, LPS then nigericin stimulation, ELISA read at 450 nm, read-out: Activity.
[4] abbreviates: Homo sapiens, THP-1, Table 4, IL-1β secretion, LPS/nigericin-stimulated THP-1 cells, read-out: IC50.

Read-outs that look alike come from different tables or passages of the source.

`O=C(CN1C[C@@]2(C[C@@H]2Cl)c2cc(Br)ccc2C1=O)Nc1ncc(F)cn1` (single isomer, unassigned) [Example 283, 2-[(2′r,4s)-6-bromo-2′-chloro-1-oxospiro[3H-isoquinoline-4,1′-cyclopropane]-2-yl]-N-(5-fluoropyrimidin-2-yl)acetamide]: the IC50 is under 10 µM under setting [1] and 0.101 µM under setting [2].
Regarding `O=C(CN1C[C@@]2(C[C@@H]2Cl)c2cc(Br)ccc2C1=O)Nc1ncc(F)cn1` (single isomer, unassigned) [Example 284, 2-[(2′r,4s)-6-bromo-2′-chloro-1-oxospiro[3H-isoquinoline-4,1′-cyclopropane]-2-yl]-N-(5-fluoropyrimidin-2-yl)acetamide], the IC50 by setting is: under setting [3], under 10 µM; under setting [2], 0.05 µM.
Regarding `N#C[C@H]1C[C@@]12CN(CC(=O)Nc1ncc(F)cn1)C(=O)c1ccc(Br)cc12` (single isomer, unassigned) [Example 286, 2-[(2′s,4r)-6-bromo-2′-cyano-1-oxospiro[3H-isoquinoline-4,1′-cyclopropane]-2-yl]-N-(5-fluoropyrimidin-2-yl)acetamide], the IC50 under setting [1] was under 10 µM and the IC50 under setting [2] was 1.95 µM.
For the molecule `N#C[C@H]1C[C@@]12CN(CC(=O)Nc1ncc(F)cn1)C(=O)c1ccc(Br)cc12` (single isomer, unassigned) [Example 287, 2-[(2′s,4r)-6-bromo-2′-cyano-1-oxospiro[3H-isoquinoline-4,1′-cyclopropane]-2-yl]-N-(5-fluoropyrimidin-2-yl)acetamide], the IC50 under setting [3] was under 10 µM and the IC50 under setting [2] was determined as 0.251 µM.
For the molecule `O=C(CN1CC2(CC2(F)F)c2c(ccc(Br)c2F)C1=O)Nc1ncc(F)cn1` (single isomer, unassigned) [Example 288, N-(5-fluoropyrimidin-2-yl)-2-[6-bromo-1′,1′,5-trifluoro-1-oxospiro[3H-isoquinoline-4,2′-cyclopropane]-2-yl]acetamide], the IC50 by setting is: under setting [1], 10 to 15 µM; under setting [2], 15.4 µM.
For the molecule `O=C(CN1CC2(CC2(F)F)c2c(ccc(Br)c2F)C1=O)Nc1ncc(F)cn1` (single isomer, unassigned) [Example 289, N-(5-fluoropyrimidin-2-yl)-2-[6-bromo-1′,1′,5-trifluoro-1-oxospiro[3H-isoquinoline-4,2′-cyclopropane]-2-yl]acetamide], the IC50 is under 10 µM under setting [3] and 0.027 µM under setting [2].
Regarding `O=C(CN1CC2(CC2(F)F)c2cc(Br)ccc2C1=O)Nc1ncc(F)cn1` (single isomer, unassigned) [Example 290, 2-[6-bromo-1′,1′-difluoro-1-oxospiro[3H-isoquinoline-4,2′-cyclopropane]-2-yl]-N-(5-fluoropyrimidin-2-yl)acetamide], the IC50 runs as follows: under setting [1], under 10 µM; under setting [2], 3.73 µM.
On to `O=C(CN1CC2(CC2(F)F)c2cc(Br)ccc2C1=O)Nc1ncc(F)cn1` (single isomer, unassigned) [Example 291, 2-[6-bromo-1′,1′-difluoro-1-oxospiro[3H-isoquinoline-4,2′-cyclopropane]-2-yl]-N-(5-fluoropyrimidin-2-yl)acetamide], for which the IC50 was under 10 µM under setting [3] and 0.037 µM under setting [2].
For the molecule `O=C(CN1CC(CF)c2cc(Br)ccc2C1=O)Nc1ncc(F)cn1` (single isomer, unassigned) [Example 292, 2-[6-bromo-4-(fluoromethyl)-1-oxo-3,4-dihydroisoquinolin-2-yl]-N-(5-fluoropyrimidin-2-yl)acetamide], the IC50 reads like this: under setting [1], under 10 µM; under setting [2], 3.94 µM.
On to `O=C(CN1CC(CF)c2cc(Br)ccc2C1=O)Nc1ncc(F)cn1` (single isomer, unassigned) [Example 293, 2-[6-bromo-4-(fluoromethyl)-1-oxo-3,4-dihydroisoquinolin-2-yl]-N-(5-fluoropyrimidin-2-yl)acetamide], for which the IC50 is under 10 µM under setting [3] and 0.134 µM under setting [2].
As to `O=C(CN1CC(C(F)F)c2c(ccc(Br)c2F)C1=O)Nc1ncc(F)cn1` (single isomer, unassigned) [Example 295, 2-[6-bromo-4-(difluoromethyl)-5-fluoro-1-oxo-3,4-dihydroisoquinolin-2-yl]-N-(5-fluoropyrimidin-2-yl)acetamide], the IC50 reads like this: under setting [1], 10 to 15 µM; under setting [2], 12.8 µM.
Turning to `O=C(CN1CC(C(F)F)c2c(ccc(Br)c2F)C1=O)Nc1ncc(F)cn1` (single isomer, unassigned) [Example 296, 2-[6-bromo-4-(difluoromethyl)-5-fluoro-1-oxo-3,4-dihydroisoquinolin-2-yl]-N-(5-fluoropyrimidin-2-yl)acetamide], the IC50 is, setting by setting: under setting [3], under 10 µM; under setting [2], 0.345 µM.
Regarding `O=C(CN1CC(C(F)(F)F)c2c(ccc(Br)c2F)C1=O)Nc1ncc(F)cn1` (single isomer, unassigned) [Example 297, 2-[6-bromo-5-fluoro-1-oxo-4-(trifluoromethyl)-3,4-dihydroisoquinolin-2-yl]-N-(5-fluoropyrimidin-2-yl)acetamide], the IC50 by setting is: under setting [1], 10 to 15 µM; under setting [2], 14.4 µM.
On to `O=C(CN1CC(C(F)(F)F)c2c(ccc(Br)c2F)C1=O)Nc1ncc(F)cn1` (single isomer, unassigned) [Example 298, 2-[6-bromo-5-fluoro-1-oxo-4-(trifluoromethyl)-3,4-dihydroisoquinolin-2-yl]-N-(5-fluoropyrimidin-2-yl)acetamide], for which the IC50 is under 10 µM under setting [3] and 0.367 µM under setting [2].
In the case of `O=C(CN1CC(C(F)(F)F)c2cc(Br)ccc2C1=O)Nc1ncc(F)cn1` (single isomer, unassigned) [Example 299, 2-[6-bromo-1-oxo-4-(trifluoromethyl)-3,4-dihydroisoquinolin-2-yl]-N-(5-fluoropyrimidin-2-yl)acetamide], the IC50 reads like this: under setting [1], under 10 µM; under setting [2], 0.096 µM.
Regarding `O=C(CN1CC(C(F)(F)F)c2cc(Br)ccc2C1=O)Nc1ncc(F)cn1` (single isomer, unassigned) [Example 300, 2-[6-bromo-1-oxo-4-(trifluoromethyl)-3,4-dihydroisoquinolin-2-yl]-N-(5-fluoropyrimidin-2-yl)acetamide], the IC50 under setting [3] was under 10 µM and the IC50 under setting [2] came to 3.43 µM.
For the molecule `O=C(CN1CC2(CC2)c2c(ccc(C3C[C@H]3F)c2F)C1=O)Nc1ncc(F)cn1` (single isomer, unassigned) [Example 303, 2-[5-fluoro-6-[(1r,2r)-2-fluorocyclopropyl]-1-oxospiro[3H-isoquinoline-4-1′-cyclopropane]-2-yl]-N-(5-fluoropyrimidin-2-yl)acetamide], under setting [4], the IC50 was 1.44 µM.
`O=C(CN1CC2(CC2)c2c(ccc(C3C[C@H]3F)c2F)C1=O)Nc1ncc(F)cn1` (single isomer, unassigned) [Example 304, 2-[5-fluoro-6-[(1r,2r)-2-fluorocyclopropyl]-1-oxospiro[3H-isoquinoline-4-1′-cyclopropane]-2-yl]-N-(5-fluoropyrimidin-2-yl)acetamide]: the IC50 under setting [2] turned out to be 2.56 µM.
Turning to `O=C(CN1CC2(CC2)c2c(ccc(C3C[C@@H]3F)c2F)C1=O)Nc1ncc(F)cn1` (single isomer, unassigned) [Example 305, 2-[5-fluoro-6-[(1r,2s)-2-fluorocyclopropyl]-1-oxospiro[3H-isoquinoline-4,1′-cyclopropane]-2-yl]-N-(5-fluoropyrimidin-2-yl)acetamide], the IC50 under setting [4] came out at 0.662 µM.

These data come from patent publication US20230416205A1, “COMPOUNDS, COMPOSITIONS, AND METHODS” (Denali Therapeutics Inc, priority 2020, published 2023).
